Source: patent US12377076B2, “Compounds for treating lymphoma or a T-cell malignant disease” (Purdue Pharma L.P., priority 2018, dated 2025)
Where “and” joins values, the source holds several entries; their conditions need not be identical. Equal values may be shown once.

How the values were obtained:
neutrophils = assay: PK/PD safety modelling: dose-nadir relationship of blood cell counts, neutrophils; format: in vivo, human; conditions: (% CV) in table
Description: (§1) The obtained exposure parameters (Cmax and AUC) and PK profiles from individual patients and the respective haematological laboratory data were collected over the treatment duration and analysed regarding the relationship to peripheral blood cell counts (lymphocytes, neutrophils, platelets).
(§2) The nadir was defined as the lowest blood cell count observed after the first administration. The nadir was extracted irrespective of the treatment duration, thus, the analysis data set included patients who received only one dose and patients who received multiple treatment cycles with tinostamustine. The baseline blood cell count, which was the count before the first administration, was included in the analysis as the cell count at dose, Cmax or AUC equal to 0. Thus, it was assumed that the baseline blood cell count was the effect level without treatment with tinostamustine. With an exploratory analysis all observations each predictor-nadir relationship was fitted with a least-squares method in R. The dose-nadir relationship was further investigated with a non-linear mixed effects approach. The advantage of the non-linear mixed effects approach compared to the exploratory analysis was that different external and patient factors could be investigated at the same time and the between patient variability can be described. […]

platelets = assay: PK/PD safety modelling: dose-nadir relationship of blood cell counts, platelets; format: in vivo, human; conditions: (% CV) in table
Description: as §1, §2

Cn1c(CCCCCCC(=O)NO)nc2cc(N(CCCl)CCCl)ccc21 [tinostamustine]
EC50 (dose required to reduce the cell count by 50%) (neutrophils): 49.1 mg/m^2 and 49.1 (70%) mg/m^2
EC50 (dose required to reduce the cell count by 50%) (platelets): 55.5 mg/m^2 and 55.5 (72%) mg/m^2
